Data taken from ChEMBL document CHEMBL1201862, “PubChem BioAssay data set” (2004).
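1) Cells in 96-well plates. 2) Compound, 48 h, 5 concentrations. 3) Linear interpolation between surrounding doses. 4) Unreached endpoint = highest concentration. GI50 marks 50% less growth.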 Calls of active or inactive are those of the source. No stated cut-off is given here; in the data, active = GI50 up to about 1.1 µM and inactive = higher.

Experiments:
Test in all cases: DTP human tumour cell line panel, 48 h
786-0 = tested on: 786-0
A498 = tested on: A498
A549 = tested on: A549
ACHN = tested on: ACHN
BT-549 = tested on: BT-549
CAKI-1 = tested on: CAKI-1
CCRF-CEM = tested on: CCRF-CEM
COLO 205 = tested on: COLO 205
DU-145 = tested on: DU-145
EKVX = tested on: EKVX
HCC 2998 = tested on: HCC 2998
HCT-116 = tested on: HCT-116
HCT-15 = tested on: HCT-15
HL-60 = tested on: HL-60
HOP-62 = tested on: HOP-62
HOP-92 = tested on: HOP-92
HT-29 = tested on: HT-29
Hs-578T = tested on: Hs-578T
IGROV-1 = tested on: IGROV-1
K562 = tested on: K562
KM12 = tested on: KM12
LOX IMVI = tested on: LOX IMVI
M14 = tested on: M14
MCF7 = tested on: MCF7
MDA-MB-231 = tested on: MDA-MB-231
MDA-MB-435 = tested on: MDA-MB-435
MDA-N = tested on: MDA-N
MOLT-4 = tested on: MOLT-4
Malme-3M = tested on: Malme-3M
NCI-H226 = tested on: NCI-H226
NCI-H23 = tested on: NCI-H23
NCI-H460 = tested on: NCI-H460
NCI-H522 = tested on: NCI-H522
NCI/ADR-RES = tested on: NCI/ADR-RES
OVCAR-3 = tested on: OVCAR-3
OVCAR-4 = tested on: OVCAR-4
OVCAR-5 = tested on: OVCAR-5
OVCAR-8 = tested on: OVCAR-8
PC-3 = tested on: PC-3
RPMI-8226 = tested on: RPMI-8226
RXF 393 = tested on: RXF 393
SF-268 = tested on: SF-268
SF-295 = tested on: SF-295
SF-539 = tested on: SF-539
SK-MEL-28 = tested on: SK-MEL-28
SK-MEL-2 = tested on: SK-MEL-2
SK-MEL-5 = tested on: SK-MEL-5
SK-OV-3 = tested on: SK-OV-3
SN12C = tested on: SN12C
SNB-19 = tested on: SNB-19
SNB-75 = tested on: SNB-75
SR = tested on: SR
SW-620 = tested on: SW-620
T47D = tested on: T47D
TK-10 = tested on: TK-10
U-251 = tested on: U-251
UACC-257 = tested on: UACC-257
UACC-62 = tested on: UACC-62
UO-31 = tested on: UO-31
DMS-114 = tested on: DMS-114
SNB-78 = tested on: SNB-78

**Q.** What does the source list for Brc1cccc(/C=C/CN2CCN(CCOC(c3ccccc3)c3ccccc3)CC2)c1?
**A.** GI50 (786-0): 15.7 µM (inactive); GI50 (A498): 17.5 µM (inactive); GI50 (A549): 15.5 µM (inactive); GI50 (ACHN): 17.5 µM (inactive); GI50 (BT-549): 16.5 µM (inactive); GI50 (CAKI-1): 15.9 µM (inactive); GI50 (CCRF-CEM): 11.1 µM (inactive); GI50 (COLO 205): 14.2 µM (inactive); GI50 (DU-145): 13.6 µM (inactive); GI50 (EKVX): 17.5 µM (inactive); GI50 (HCC 2998): 8.53 µM (inactive); GI50 (HCT-116): 13.7 µM (inactive); GI50 (HCT-15): 15.6 µM; GI50 (HL-60): 7.45 µM (inactive); GI50 (HOP-62): 15.9 µM (inactive); GI50 (HOP-92): 6 µM (inactive); GI50 (HT-29): 6.22 µM (inactive); GI50 (Hs-578T): 22.1 µM (inactive); GI50 (IGROV-1): 15.9 µM (inactive); GI50 (K562): 7.69 µM (inactive); GI50 (KM12): 14.8 µM (inactive); GI50 (LOX IMVI): 14.5 µM (inactive); GI50 (M14): 13.2 µM (inactive); GI50 (MCF7): 14.5 µM (inactive); GI50 (MDA-MB-231): 13.9 µM (inactive); GI50 (MDA-MB-435): 12.6 µM (inactive); GI50 (MDA-N): 16.7 µM (inactive); GI50 (MOLT-4): 8.47 µM (inactive); GI50 (Malme-3M): 16.1 µM (inactive); GI50 (NCI-H226): 19 µM (inactive); GI50 (NCI-H23): 16.5 µM (inactive); GI50 (NCI-H460): 13.3 µM (inactive); GI50 (NCI-H522): 14.4 µM (inactive); GI50 (NCI/ADR-RES): 14.7 µM (inactive); GI50 (OVCAR-3): 15.4 µM (inactive); GI50 (OVCAR-4): 11.7 µM (inactive); GI50 (OVCAR-5): 16.2 µM (inactive); GI50 (OVCAR-8): 16.1 µM (inactive); GI50 (PC-3): 13.2 µM (inactive); GI50 (RPMI-8226): 4.08 µM (inactive); GI50 (RXF 393): 11.6 µM (inactive); GI50 (SF-268): 16.4 µM (inactive); GI50 (SF-295): 17.6 µM (inactive); GI50 (SF-539): 15.7 µM (inactive); GI50 (SK-MEL-28): 17.8 µM (inactive); GI50 (SK-MEL-2): 17.8 µM (inactive); GI50 (SK-MEL-5): 15.1 µM (inactive); GI50 (SK-OV-3): 17.6 µM (inactive); GI50 (SN12C): 15 µM (inactive); GI50 (SNB-19): 16.7 µM (inactive); GI50 (SNB-75): 6.08 µM (inactive); GI50 (SR): 9.02 µM (inactive); GI50 (SW-620): 17.8 µM (inactive); GI50 (T47D): 3.73 µM (inactive); GI50 (TK-10): 19.3 µM (inactive); GI50 (U-251): 13.6 µM (inactive); GI50 (UACC-257): 17.9 µM (inactive); GI50 (UACC-62): 17.4 µM (inactive); GI50 (UO-31): 13.1 µM (inactive)

**Q.** How did the GI50 (A549) turn out when COc1cc(C)cc2c1[nH]c1ccccc12 [MURRAYAFOLINE A] was run?
**A.** 11.5 µM (inactive)

**Q.** What about the GI50 (DMS-114) of the same molecule?
**A.** 9.64 µM (inactive)

**Q.** And the GI50 (HOP-62)?
**A.** 6.53 µM (inactive)

**Q.** What about the GI50 (K562) of the same molecule?
**A.** > 25 µM (inactive)

**Q.** And the GI50 (OVCAR-3)?
**A.** 8.91 µM (inactive)

**Q.** What about the GI50 (OVCAR-4) of the same molecule?
**A.** > 25 µM (inactive)

**Q.** And the GI50 (OVCAR-5)?
**A.** 24.5 µM (inactive)

**Q.** And the GI50 (OVCAR-8)?
**A.** 7.33 µM (inactive)

**Q.** What about the GI50 (RPMI-8226) of the same molecule?
**A.** 8.65 µM (inactive)

**Q.** And the GI50 (RXF 393)?
**A.** 9.16 µM (inactive)

**Q.** What about the GI50 (SNB-19) of the same molecule?
**A.** > 25 µM (inactive)

**Q.** What about the GI50 (SNB-78) of the same molecule?
**A.** > 25 µM (inactive)

**Q.** What about the GI50 (TK-10) of the same molecule?
**A.** > 25 µM (inactive)

**Q.** What does the source list for Nc1ccccc1OCCCOc1ccccc1N?
**A.** GI50 (786-0): > 100 µM (inactive); GI50 (A498): > 100 µM (inactive); GI50 (A549): > 100 µM (inactive); GI50 (ACHN): > 100 µM (inactive); GI50 (BT-549): > 100 µM (inactive); GI50 (CAKI-1): > 100 µM (inactive); GI50 (CCRF-CEM): > 100 µM (inactive); GI50 (COLO 205): > 100 µM (inactive); GI50 (DU-145): > 100 µM (inactive); GI50 (EKVX): > 100 µM (inactive); GI50 (HCC 2998): > 100 µM (inactive); GI50 (HCT-116): > 100 µM (inactive); GI50 (HCT-15): > 100 µM; GI50 (HL-60): > 100 µM (inactive); GI50 (HOP-62): > 100 µM (inactive); GI50 (HOP-92): > 100 µM (inactive); GI50 (HT-29): > 100 µM (inactive); GI50 (Hs-578T): > 100 µM (inactive); GI50 (IGROV-1): > 100 µM (inactive); GI50 (K562): > 100 µM (inactive); GI50 (KM12): > 100 µM (inactive); GI50 (LOX IMVI): > 100 µM (inactive); GI50 (M14): > 100 µM (inactive); GI50 (MCF7): > 100 µM (inactive); GI50 (MDA-MB-231): > 100 µM (inactive); GI50 (MDA-MB-435): 57.1 µM (inactive); GI50 (MDA-N): 51.8 µM (inactive); GI50 (MOLT-4): > 100 µM (inactive); GI50 (Malme-3M): > 100 µM (inactive); GI50 (NCI-H226): > 100 µM (inactive); GI50 (NCI-H23): > 100 µM (inactive); GI50 (NCI-H460): > 100 µM (inactive); GI50 (NCI-H522): > 100 µM (inactive); GI50 (NCI/ADR-RES): > 100 µM (inactive); GI50 (OVCAR-3): > 100 µM (inactive); GI50 (OVCAR-4): > 100 µM (inactive); GI50 (OVCAR-5): > 100 µM (inactive); GI50 (OVCAR-8): > 100 µM (inactive); GI50 (PC-3): > 100 µM (inactive); GI50 (RPMI-8226): > 100 µM (inactive); GI50 (RXF 393): > 100 µM (inactive); GI50 (SF-268): > 100 µM (inactive); GI50 (SF-295): > 100 µM (inactive); GI50 (SF-539): > 100 µM (inactive); GI50 (SK-MEL-28): > 100 µM (inactive); GI50 (SK-MEL-2): > 100 µM (inactive); GI50 (SK-MEL-5): 78.3 µM (inactive); GI50 (SK-OV-3): > 100 µM (inactive); GI50 (SN12C): > 100 µM (inactive); GI50 (SNB-19): > 100 µM (inactive); GI50 (SNB-75): > 100 µM (inactive); GI50 (SR): 88.5 µM (inactive); GI50 (SW-620): > 100 µM (inactive); GI50 (T47D): > 100 µM (inactive); GI50 (TK-10): > 100 µM (inactive); GI50 (U-251): > 100 µM (inactive); GI50 (UACC-257): > 100 µM (inactive); GI50 (UACC-62): > 100 µM (inactive); GI50 (UO-31): > 100 µM (inactive)
